Measured values from ChEMBL document CHEMBL1201862, “PubChem BioAssay data set” (2004).
Calls of active or inactive are those of the source.

Tests used:
[1] = target: T1, Carboxy-terminal domain RNA polymerase II polypeptide A small phosphatase 1 (Homo sapiens, UniProt Q9GZU7); experiment: inhibitors of CTDSP1, concentration-response testing, biochemical assay, absorbance-based, actives from ultra-high-throughput screening (AID 540297); format: functional
T1 sequence (Q9GZU7 whole entry): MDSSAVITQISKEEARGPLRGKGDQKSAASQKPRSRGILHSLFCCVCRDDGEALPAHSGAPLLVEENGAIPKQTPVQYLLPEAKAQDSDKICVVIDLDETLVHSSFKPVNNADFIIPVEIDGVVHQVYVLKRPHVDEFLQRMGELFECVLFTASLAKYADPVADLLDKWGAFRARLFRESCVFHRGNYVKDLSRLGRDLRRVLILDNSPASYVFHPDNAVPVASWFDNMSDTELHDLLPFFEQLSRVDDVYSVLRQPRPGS

H9c2 = experiment: cells; format: functional, cell-based; details: Rattus norvegicus, H9c2, Myocardium;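 further: confirmatory concentration-response retest of ultra-high-throughput screening hits for modulation of myocardial damage; cell death induced by hydrogen peroxide oxidative stress; compound pretreatment for 60 min then peroxide exposure for 2 h; potency is for protecting the cells against peroxide damage rather than for killing them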
[2] = target: T2, Corticotropin-releasing factor receptor 2/Corticotropin-releasing factor-binding protein (Homo sapiens, UniProt P24387+Q13324); experiment: Dose Response confirmation of uHTS hits for small molecule antagonists of the CRF-binding protein and CRF-R2 receptor complex.; format: functional; details: read-out: IC50_Mean
T2 sequence (Q13324 whole entry): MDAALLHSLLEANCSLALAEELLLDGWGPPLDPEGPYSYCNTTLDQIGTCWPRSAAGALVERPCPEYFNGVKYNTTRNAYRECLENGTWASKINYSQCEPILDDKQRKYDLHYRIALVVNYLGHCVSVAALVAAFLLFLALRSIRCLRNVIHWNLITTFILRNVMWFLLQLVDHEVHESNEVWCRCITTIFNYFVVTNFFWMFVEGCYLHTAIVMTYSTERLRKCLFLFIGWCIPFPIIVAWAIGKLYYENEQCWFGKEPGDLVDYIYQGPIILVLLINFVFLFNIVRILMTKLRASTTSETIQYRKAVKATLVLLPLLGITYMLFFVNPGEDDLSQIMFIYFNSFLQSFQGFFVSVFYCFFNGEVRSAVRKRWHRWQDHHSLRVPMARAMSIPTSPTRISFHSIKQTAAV
T2 sequence (P24387 whole entry): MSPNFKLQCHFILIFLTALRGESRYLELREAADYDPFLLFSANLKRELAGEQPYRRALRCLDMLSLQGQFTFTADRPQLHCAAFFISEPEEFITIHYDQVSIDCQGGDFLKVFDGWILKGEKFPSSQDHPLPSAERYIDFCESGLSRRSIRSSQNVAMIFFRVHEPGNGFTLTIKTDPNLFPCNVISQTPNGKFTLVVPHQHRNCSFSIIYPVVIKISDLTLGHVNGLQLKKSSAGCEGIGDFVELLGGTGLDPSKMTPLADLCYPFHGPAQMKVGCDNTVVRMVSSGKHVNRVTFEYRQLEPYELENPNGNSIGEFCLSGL

[3] = target: T2, Corticotropin-releasing factor receptor 2/Corticotropin-releasing factor-binding protein; experiment: activators of CRF receptor 2 with binding protein – uHTS hits, confirmation (AID 602473); format: functional; details: read-out: EC50_Mean
[4] = Luminescence Cell-Based Dose Confirmation HTS to Identify Activators of 5'UTR Stem-Loop Driven Alpha-Synuclein mRNA Translation in H4 Neuroglioblastoma Cells. [Related pubchem assays: 1829 (Project Summary), 1814 (Primary HTS)]; format: functional
[5] = Luminescence Cell-Based Dose Response HTS to Identify Activators of Luciferase Translation or Activity in H4 […] Cells. [Related pubchem assays: 1829 (Project Summary), 1814 (Primary HTS)]; format: functional
H4 = experiment: Luminescence Cell-Based Dose Response HTS to Identify Activators of 5'UTR Stem-Loop Driven Prion Protein mRNA Translation in H4 Neuroglioblastoma Cells. [Related pubchem assays: 1829 (Project Summary), 1814 (Primary HTS)]; format: functional; details: Homo sapiens
[6] = target: T3, Polyadenylate-binding protein 1 (Homo sapiens, UniProt P11940); experiment: PABP1 MLLE–PAM2 interaction inhibitors, dose response, miRNA deadenylation inhibitor project, biochemical, fluorescence polarization, Cy5-PAM2 peptide, secondary (AID 602260); format: functional; details: read-out: IC50_Mean
T3 sequence (P11940 whole entry): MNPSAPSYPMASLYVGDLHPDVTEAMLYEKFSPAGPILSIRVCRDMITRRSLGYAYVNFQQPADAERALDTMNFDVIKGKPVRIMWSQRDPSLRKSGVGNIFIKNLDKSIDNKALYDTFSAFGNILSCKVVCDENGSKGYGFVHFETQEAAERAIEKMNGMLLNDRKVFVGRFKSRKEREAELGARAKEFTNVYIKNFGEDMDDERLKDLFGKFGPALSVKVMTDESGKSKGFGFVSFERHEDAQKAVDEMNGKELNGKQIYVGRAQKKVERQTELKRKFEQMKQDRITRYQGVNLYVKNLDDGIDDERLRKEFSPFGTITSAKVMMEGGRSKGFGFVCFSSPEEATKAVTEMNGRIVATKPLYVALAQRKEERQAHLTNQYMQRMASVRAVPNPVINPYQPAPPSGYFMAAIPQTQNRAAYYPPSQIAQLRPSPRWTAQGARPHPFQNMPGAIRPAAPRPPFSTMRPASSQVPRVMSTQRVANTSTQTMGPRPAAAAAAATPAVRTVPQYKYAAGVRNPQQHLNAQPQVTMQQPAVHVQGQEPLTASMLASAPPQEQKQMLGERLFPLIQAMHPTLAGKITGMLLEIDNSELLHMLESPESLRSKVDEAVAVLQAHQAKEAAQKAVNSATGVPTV

[7] = target: T3, Polyadenylate-binding protein 1; experiment: PABP1 MLLE–PAM2 binding inhibitor potency, dose response, biochemical, fluorescence polarization, FITC-PAM2 peptide (AID 602259); format: functional; details: read-out: IC50_Mean
[8] = target: T4, High affinity choline transporter 1 (Homo sapiens, UniProt Q9GZV3); experiment: CHT inhibitors, dose response, cell-based, 5-point CRC, membrane potential dye (AID 504840); format: functional
T4 sequence (Q9GZV3 whole entry): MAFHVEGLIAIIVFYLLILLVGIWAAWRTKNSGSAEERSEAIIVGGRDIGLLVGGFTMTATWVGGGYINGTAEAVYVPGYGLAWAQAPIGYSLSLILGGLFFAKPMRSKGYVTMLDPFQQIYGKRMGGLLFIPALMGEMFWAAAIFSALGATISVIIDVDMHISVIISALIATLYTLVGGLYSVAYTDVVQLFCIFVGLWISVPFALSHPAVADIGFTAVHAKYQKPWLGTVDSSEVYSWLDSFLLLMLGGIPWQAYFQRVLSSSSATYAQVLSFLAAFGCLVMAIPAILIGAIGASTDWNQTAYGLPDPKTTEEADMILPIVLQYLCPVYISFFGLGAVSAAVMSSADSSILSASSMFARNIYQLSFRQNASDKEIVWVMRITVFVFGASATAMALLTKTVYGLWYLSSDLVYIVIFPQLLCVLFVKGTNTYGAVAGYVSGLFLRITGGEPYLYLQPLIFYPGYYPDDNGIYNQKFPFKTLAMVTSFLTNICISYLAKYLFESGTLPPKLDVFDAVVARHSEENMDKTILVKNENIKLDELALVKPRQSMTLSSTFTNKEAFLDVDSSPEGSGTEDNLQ

[9] = Shn3 3'UTR reporter inhibitors, dose response, cell-based, Clone20 osteoblasts, firefly luciferase, cherry-picked (AID 624132); format: functional;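 further: firefly luciferase luminescence from reporter carrying the Shn3 3'UTR in osteoblasts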
[10] = HepG2 cell cytotoxicity, dose response, cytotoxicity control for Shn3 inhibitor project, CellTiter-Glo, cherry-picked (AID 624134); format: functional, cell-based
[11] = control 3'UTR Renilla luciferase suppression, dose response, counter-screen for Shn3 inhibitor project, cell-based, Clone20-Shn3RL, cherry-picked (AID 624133); format: functional

Compound: COc1ccc(/C=C/C(=O)OCC(=O)NCc2ccco2)cc1OC
- IC50 [1]: 14.5 µM (active)

Compound: Cn1c(=O)c(NC(=O)c2ccccc2)c2n(c1=S)CCCCC2
- IC50 [1]: 14.3 µM (active)

Compound: Cn1c(NN)nc2c1c(=O)n(Cc1ccccc1)c(=O)n2C
- IC50 [1]: 25.2 µM (active)

Compound: CNC(=O)c1cccc(NC(=O)c2cc(-c3ccccc3)nc3c2cnn3C(C)C)c1
- IC50 (H9c2): > 79 µM (inactive)

Compound: O=C(NCC(=O)N(Cc1cccs1)C(C(=O)NC1CCCCC1)c1ccco1)c1cccs1 (configuration not stated)
- IC50 (H9c2): 8.09 µM (active)

Compound: Cc1ccc(NC(=O)COC(=O)CN2C(=O)NC3(CCCC3)C2=O)cc1S(=O)(=O)N(C)C
- IC50 [2]: > 47.1 µM (inactive)
- EC50 [3]: > 53 µM (inactive)

Compound: CC(C)(C)c1ccc(C(=O)NNC(=O)C2CCCCC2)cc1
- EC50 [4]: 19.6 µM (active)
- EC50 [5]: 30.7 µM (active)
- EC50 (H4): 59.3 µM (active)

Compound: Cc1cc(Cl)ccc1N=C(S)Nc1cccnc1
- IC50 [6]: > 66 µM (inactive)
- IC50 [7]: > 66 µM (inactive)

Compound: O=[N+]([O-])c1cccn2cc(-c3ccc(Br)cc3)nc12
- EC50 (H4): > 120 µM (not active)
- IC50 [1]: 9.74 µM (active)

Compound: COCCn1c(CN2CCN(c3cccc(Cl)c3)CC2)nc2c1c(=O)n(C)c(=O)n2C
- IC50 [8]: 12.3 µM (active)
- AC50 [9]: 10.7 µM (active)
- AC50 [10]: 52.3 µM (active)
- AC50 [11]: 11 µM (active)

Compound: Clc1ccc(-c2csc(N3CCOCC3)n2)cc1
- IC50 [2]: > 47.1 µM (inactive)
- EC50 [3]: > 53 µM (inactive)

Compound: COc1ccc(Cl)cc1N=C(S)Nc1ccccc1F
- IC50 [6]: > 66 µM (inactive)
- IC50 [7]: > 66 µM (inactive)

Compound: CN1/C(=C\C(=O)c2cccc([N+](=O)[O-])c2)Sc2ccccc21
- IC50 [6]: > 66 µM (inactive)
- IC50 [7]: > 66 µM (inactive)

Compound: COc1ccccc1OCCSc1nc(O)c2ccccc2n1
- IC50 (H9c2): 14.4 µM (active)

Compound: Cc1nn(C)c(C)c1NC(=O)c1cc2nc(-c3ccco3)cc(C(F)(F)F)n2n1
- IC50 [2]: > 47.1 µM (inactive)
- EC50 [3]: > 53 µM (inactive)

Compound: COc1cccc(OC)c1C(=O)Nc1ccc(Br)c(C(=O)c2ccccc2)c1
- IC50 (H9c2): 31.1 µM (inactive)

Compound: CCOc1cccc(-c2csc(C3COc4ccccc4O3)n2)c1 (configuration not stated)
- EC50 [4]: 13.4 µM (active)
- EC50 (H4): 37.5 µM (active)

Compound: COc1ccc(-c2cc(C(F)F)n3ncc(C(=O)Nc4ccc(C(=O)N5CCOCC5)cc4)c3n2)cc1
- IC50 (H9c2): > 79 µM (inactive)

Compound: O=[N+]([O-])c1ccc(O)c(CSc2nnnn2-c2ccccc2)c1
- IC50 [8]: 12 µM (active)

Compound: COc1ccc(CN2CCN(C(=O)c3cccs3)CC2)c(OC)c1OC
- IC50 [2]: > 47.1 µM (inactive)
- EC50 [3]: > 53 µM (inactive)

Compound: CCc1nc2cccnc2n1-c1ccc(C(=O)O)cc1
- IC50 [6]: > 66 µM (inactive)
- IC50 [7]: 49.5 µM (inactive)

Compound: c1ccc(NC2=Nc3ccccc3CS2)cc1
- EC50 [4]: 0.465 µM (active)
- EC50 [5]: 0.409 µM (active)

Compound: O=[N+]([O-])c1ccc(C(O)CSC(=S)N2CCCCC2)cc1 (configuration not stated)
- EC50 [4]: 7.46 µM (active)
- EC50 [5]: 56.4 µM (active)
- EC50 (H4): 32.7 µM (active)

Compound: COC(=O)CC(NC(=S)NC(=O)c1ccccc1)c1ccc(Br)cc1 (configuration not stated)
- IC50 [6]: > 66 µM (inactive)
- IC50 [7]: > 66 µM (inactive)

Compound: CSc1nc2ncc(-c3ccsc3)c(N)n2n1
- EC50 [4]: > 120 µM (not active)
- EC50 [5]: 19.5 µM (active)
- EC50 (H4): 27.2 µM (active)

Compound: COc1cccc(NC(=O)COC(=O)c2ccc(S(=O)(=O)NCc3ccco3)cc2)c1
- IC50 [1]: 7.96 µM (active)

Compound: Cn1c2c(c(=O)[nH]c1=O)C(c1ccc(O)cc1)C1=C(O)c3ccccc3C1=N2 (configuration not stated)
- EC50 [4]: > 120 µM (not active)
- EC50 [5]: > 120 µM (not active)
- EC50 (H4): > 120 µM (not active)

Compound: NCCCCCc1nnc(SCc2ccc(Cl)c(Cl)c2)o1
- IC50 [8]: 13.2 µM (active)

Compound: O=C(NC1=NCCS1)c1cccs1
- IC50 [6]: > 66 µM (inactive)
- IC50 [7]: > 66 µM (inactive)

Compound: CC1(C)Cc2ccccc2-c2c1c(=O)n(Cc1ccccc1)c1nnnn21
- IC50 [2]: > 47.1 µM (inactive)
- EC50 [3]: > 53 µM (inactive)

Compound: O=C1c2ccccc2C2C3=C(O)CC(c4ccco4)CC3=Nc3ccccc3N12 (configuration not stated)
- EC50 [4]: > 120 µM (not active)
- EC50 [5]: 41 µM (active)
- EC50 (H4): > 120 µM (not active)

Compound: COc1ccc(NC(=O)NCCCN2CCc3ccccc3C2)cc1
- IC50 [2]: > 47.1 µM (inactive)
- EC50 [3]: > 53 µM (inactive)

Compound: Cc1cc(C)nc(N2N=C(CSc3ccc(Cl)cc3)CC2=O)n1
- IC50 [8]: 15.1 µM (active)

Compound: CC(c1nc(O)c2ccccc2n1)N(C)c1ccc2ccccc2c1 (configuration not stated)
- IC50 [6]: > 66 µM (inactive)
- IC50 [7]: > 66 µM (inactive)

Compound: COc1cc2c(C(=O)NCc3ccccn3)cn(CC(C)C)c(=O)c2cc1OC
- IC50 (H9c2): > 79 µM (inactive)

Compound: Cc1ccc(C(C)C)c(OCC(=O)NS(=O)(=O)c2ccc(Cl)cc2)c1
- IC50 [8]: 11.8 µM (active)

Compound: CCN1C(=O)[C@H]2[C@H]3CN=C(SCC4CC4)N3[C@@](Cc3ccccc3)(C(=O)OC)[C@H]2C1=O
- IC50 [1]: 12.1 µM (active)

Compound: CCc1ccc(NC(=O)Cn2nc(C(=O)O)c3ccccc3c2=O)cc1
- IC50 [2]: > 47.1 µM (inactive)
- EC50 [3]: > 53 µM (inactive)

Compound: Cc1ccc2c(C)c(C(=O)N3CCC(N4CCC(C(=O)NC5CC5)CC4)CC3)oc2c1
- IC50 [8]: 14.5 µM (active)

Compound: NC(=S)N/N=C1/CCSc2ccc3ccccc3c21
- IC50 [8]: 6.48 µM (active)

Compound: N#C/C(=N\Nc1cccc(Cl)c1)C(=O)c1ccccc1
- IC50 [8]: 13.8 µM (active)
- EC50 [3]: > 53 µM (inactive)
